Seven compounds from patent publication US8906928B2, “Substituted pyrazolo-pyrrolo-pyridine-dione compounds” (ArQule, Inc., priority 2009, dated 2014) can be followed below.

Holding throughout (assay type): cell-based
The test system of one test is DLD-1. The experiment in a line: MTS assay (cell growth inhibition), DLD-1. The settings on record: DLD-1 cells, 72 hours incubation with test compound; concentration not given. Here is the method: (§1) Cells were maintained at 37° C., 5% CO2 in DMEM media supplemented with 1% fetal bovine serum, penicillin/streptomycin and fungizone (Invitrogen). Cells were seeded into 96-well tissue culture plates at 3000 per well and cultured at 37° C. for 18 hours. Test compounds were dissolved and diluted to 300× in DMSO then diluted 1:40 in DMEM. Cells were incubated with test compounds for 72 hours followed by incubation with tetrazolium compound (3-(4,5-dimethylthiazol-2-yl)-5-(3-carboxymethoxyphenyl)-2-(4-sulfophenyl)-2H-tetrazolium, inner salt; MTS) and the electron coupling reagent, phenazine methosulfate (PMS) for 4 hours. […] The ability of compounds to inhibit cell growth in this assay is correlated with the reduction of dehydrogenase enzyme activity found in metabolically active cells. The measurement of the absorbance of the formazan was assessed using an ENVISION™ (Perkin Elmer) microplate reader at 492 nm. The calculated IC50 value is the concentration of the test compound that causes a 50% decrease in the absorbance.
A general note: Tetrazolium assays rely on reduction of a dye to a coloured formazan, in cell work by metabolically active cells.

A further test deals with Kato III. The experiment in a line: MTS assay (cell growth inhibition), Kato III. The settings on record: Kato III cells, 72 hours incubation with test compound; concentration not given. Here is the method: as §1
For a further test, the system named is MDA-MB. The experiment in a line: MTS assay (cell growth inhibition), MDA-MB. The settings on record: MDA-MB cells, 72 hours incubation with test compound; concentration not given. Here is the method:
as §1

Another test deals with NCI-H1299. The experiment in a line: MTS assay (cell growth inhibition), NCI-H1299. The settings on record: NCI-H1299 cells, 72 hours incubation with test compound; concentration not given. Here is the method:
as §1

A further test has as its system PACA-2. The test can be described thus: MTS assay (cell growth inhibition), PACA-2. The following applies: PACA-2 cells, 72 hours incubation with test compound; concentration not given. Here is the method:
as §1

A further test relates to PC-3. The test can be described thus: MTS assay (cell growth inhibition), PC-3. The following applies: PC-3 cells, 72 hours incubation with test compound; concentration not given. Here is the method:
as §1

As to `O=C1c2cnc3[nH]ncc3c2C(=O)N1Cc1ccncc1` [Example 43, 7-(pyridin-4-ylmethyl)pyrazolo[3,4-b]pyrrolo[3,4-d]pyridine-6,8(3H,7H)-dione], the “MTS CELL KILL DATA (% INHIBITION) DLD-1” value in the test on DLD-1 is reported as “C (C = <50% INHIBITION)”. In addition, the “MTS CELL KILL DATA (% INHIBITION) Kato III” value in the test with Kato III was “C (C = <50% INHIBITION)”. In the test on MDA-MB, the “MTS CELL KILL DATA (% INHIBITION) MDA-MB” value is “A (A = 80-100% INHIBITION)”. The “MTS CELL KILL DATA (% INHIBITION) NCI-H1299” value with NCI-H1299 was “C (C = <50% INHIBITION)”. The “MTS CELL KILL DATA (% INHIBITION) PACA-2” value in the test with PACA-2 is reported as “A (A = 80-100% INHIBITION)”. Also, the “MTS CELL KILL DATA (% INHIBITION) PC-3” value with PC-3 is “A (A = 80-100% INHIBITION)”.

`CC(C)(C)c1ccc(CN2C(=O)c3cnc4[nH]ncc4c3C2=O)cc1` [Example 47, 7-(4-tert-butylbenzyl)pyrazolo[3,4-b]pyrrolo[3,4-d]pyridine-6,8(3H,7H)-dione,]: the “MTS CELL KILL DATA (% INHIBITION) DLD-1” value in the test on DLD-1 is on record as “C (C = <50% INHIBITION)”. Also, the “MTS CELL KILL DATA (% INHIBITION) Kato III” value with Kato III is “C (C = <50% INHIBITION)”. Further, in the test on MDA-MB, the “MTS CELL KILL DATA (% INHIBITION) MDA-MB” value is listed as “C (C = <50% INHIBITION)”. In the test on NCI-H1299, the “MTS CELL KILL DATA (% INHIBITION) NCI-H1299” value is on record as “C (C = <50% INHIBITION)”. In addition, in the test on PACA-2, the “MTS CELL KILL DATA (% INHIBITION) PACA-2” value is listed as “C (C = <50% INHIBITION)”. Also, in the test with PC-3, the “MTS CELL KILL DATA (% INHIBITION) PC-3” value is “C (C = <50% INHIBITION)”.

As for `O=C1c2cnc3[nH]ncc3c2C(=O)N1Cc1c(F)ccc(F)c1Cl` [Example 48, 7-(2-chloro-3,6-difluorobenzyl)pyrazolo[3,4-b]pyrrolo[3,4-d]pyridine-6,8(3H,7H)-dione], the “MTS CELL KILL DATA (% INHIBITION) DLD-1” value in the test with DLD-1 is reported as “C (C = <50% INHIBITION)”. Further, in the test on Kato III, the “MTS CELL KILL DATA (% INHIBITION) Kato III” value is on record as “B (B = 50-79% INHIBITION)”. For the same compound, the “MTS CELL KILL DATA (% INHIBITION) MDA-MB” value in the test with MDA-MB is given as “A (A = 80-100% INHIBITION)”. For the same compound, the “MTS CELL KILL DATA (% INHIBITION) NCI-H1299” value with NCI-H1299 is recorded as “C (C = <50% INHIBITION)”. Further, the “MTS CELL KILL DATA (% INHIBITION) PACA-2” value in the test on PACA-2 was “B (B = 50-79% INHIBITION)”. In the test on PC-3, the “MTS CELL KILL DATA (% INHIBITION) PC-3” value is listed as “C (C = <50% INHIBITION)”.

As for `CC(CCN1C(=O)c2cnc3[nH]ncc3c2C1=O)c1ccccc1` (stereo not drawn) [Example 53, 7-(3-phenylbutyl)pyrazolo[3,4-b]pyrrolo[3,4-d]pyridine-6,8(3H,7H)-dione], the “MTS CELL KILL DATA (% INHIBITION) DLD-1” value with DLD-1 is “C (C = <50% INHIBITION)”. Further, the “MTS CELL KILL DATA (% INHIBITION) Kato III” value with Kato III is “C (C = <50% INHIBITION)”. For the same compound, the “MTS CELL KILL DATA (% INHIBITION) MDA-MB” value in the test on MDA-MB is “A (A = 80-100% INHIBITION)”. The “MTS CELL KILL DATA (% INHIBITION) NCI-H1299” value with NCI-H1299 is “C (C = <50% INHIBITION)”. In the test with PACA-2, the “MTS CELL KILL DATA (% INHIBITION) PACA-2” value is “A (A = 80-100% INHIBITION)”. Moreover, the “MTS CELL KILL DATA (% INHIBITION) PC-3” value in the test with PC-3 is recorded as “A (A = 80-100% INHIBITION)”.

For the compound `O=C1c2cnc3[nH]ncc3c2C(=O)N1Cc1cc(Cl)ccc1Cl` [Example 61, 7-(2,5-dichlorobenzyl)pyrazolo[3,4-b]pyrrolo[3,4-d]pyridine-6,8(3H,7H)-dione], in the test on DLD-1, the “MTS CELL KILL DATA (% INHIBITION) DLD-1” value is listed as “B (B = 50-79% INHIBITION)”. Moreover, in the test on Kato III, the “MTS CELL KILL DATA (% INHIBITION) Kato III” value is given as “B (B = 50-79% INHIBITION)”. For the same compound, the “MTS CELL KILL DATA (% INHIBITION) MDA-MB” value in the test with MDA-MB is recorded as “A (A = 80-100% INHIBITION)”. Besides, in the test with NCI-H1299, the “MTS CELL KILL DATA (% INHIBITION) NCI-H1299” value is “C (C = <50% INHIBITION)”. For the same compound, the “MTS CELL KILL DATA (% INHIBITION) PACA-2” value in the test with PACA-2 was “C (C = <50% INHIBITION)”. The “MTS CELL KILL DATA (% INHIBITION) PC-3” value in the test on PC-3 was “C (C = <50% INHIBITION)”.

Turning to `CCCC(CCC)CN1C(=O)c2cnc3[nH]ncc3c2C1=O` [Example 63, 7-(2-propylpentyl)pyrazolo[3,4-b]pyrrolo[3,4-d]pyridine-6,8(3H,7H)-dione], the “MTS CELL KILL DATA (% INHIBITION) DLD-1” value in the test on DLD-1 is on record as “C (C = <50% INHIBITION)”. In addition, the “MTS CELL KILL DATA (% INHIBITION) Kato III” value in the test with Kato III is recorded as “C (C = <50% INHIBITION)”. Moreover, in the test with MDA-MB, the “MTS CELL KILL DATA (% INHIBITION) MDA-MB” value is on record as “A (A = 80-100% INHIBITION)”. Besides, the “MTS CELL KILL DATA (% INHIBITION) NCI-H1299” value in the test on NCI-H1299 is “C (C = <50% INHIBITION)”. Further, the “MTS CELL KILL DATA (% INHIBITION) PACA-2” value in the test with PACA-2 is “A (A = 80-100% INHIBITION)”. Besides, in the test on PC-3, the “MTS CELL KILL DATA (% INHIBITION) PC-3” value is on record as “A (A = 80-100% INHIBITION)”.

For the compound `Cc1ccc(CCN2C(=O)c3cnc4[nH]ncc4c3C2=O)cc1` [Example 69, 7-[2-(4-methylphenyl)ethyl]pyrazolo[3,4-b]pyrrolo[3,4-d]pyridine-6,8(3H,7H)-dione], the “MTS CELL KILL DATA (% INHIBITION) DLD-1” value in the test on DLD-1 is “C (C = <50% INHIBITION)”. In the test on Kato III, the “MTS CELL KILL DATA (% INHIBITION) Kato III” value was “C (C = <50% INHIBITION)”. Besides, the “MTS CELL KILL DATA (% INHIBITION) MDA-MB” value in the test on MDA-MB is on record as “C (C = <50% INHIBITION)”. The “MTS CELL KILL DATA (% INHIBITION) NCI-H1299” value in the test with NCI-H1299 was “C (C = <50% INHIBITION)”. The “MTS CELL KILL DATA (% INHIBITION) PACA-2” value in the test with PACA-2 was “C (C = <50% INHIBITION)”. The “MTS CELL KILL DATA (% INHIBITION) PC-3” value in the test with PC-3 is recorded as “C (C = <50% INHIBITION)”.
